Assay results reported in patent publication US20260365611A1, “CRYSTALLINE SALTS OF 2-PHENYL-2-AMINOCYCLOHEXAN-1-ONE DERIVATIVES” (priority 2023, published 2026).
Counter-ions that a name gives are not always drawn. Like-named read-outs stand apart in the source and are kept apart here.

Tests used:
Type in all cases: physicochemical
[1] = Approximate solubility in 20 solvents; settings: for solubility: RT
Description: The approximate solubility of the crystalline hydrochloride salt product of Example 1 (1R HCl Form 1) was estimated in 20 solvents as follows: Approximately 10 mg of the product of Example 1 is placed into a 4.0 mL vial, to which 25 μL of solvent at RT is added, and then the vial with its contents is shaken and stirred. If no clear solution is obtained, another 25 μL of solvent is added to the vial and then the vial with its contents is shaken and stirred again. This process is repeated until 4.0 mL solvent is added, and then the contents of the vial are stirred overnight.

[2] = Dynamic Vapor Sorption (DVS)
Description: 1R HCl Form 1 was analyzed by DVS (0-90-O-90-0% RH at 25 °C). The DVS behavior is shown in FIGS. 5(a) and (b), wherein 1 plots cycle 1 desorption, 2 plots cycle 2 sorption, 3 plots cycle 2 desorption, 4 plots cycle 1 sorption, 5 plots target % P/Po and 6 plots dm dry line, wherein P is the vapor pressure, Po is the saturation vapor pressure and P/Po is equivalent to % relative humidity for water.

[3] = Thermo-Gravimetric Analysis (TGA)
Description: In the examples below, the solids are analyzed by XRPD to determine if they are crystalline and if so, by DSC to determine melting point and TGA to determine if hydrated/solvated.

Sublimation on heating = settings: heated up to 300 °C
Description: The Form 1 polymorph was heated up to 300 °C. […] Polymorph screening of the deuterated 1R HCl salt of Example 2 (Form 1).

[4] = Crystal form conversion on drying
Description: About 0.25 mL of ethyl acetate was added to a glass vial containing about 40 mg of freebase (R)-2-(4-fluorophenyl)-2-(methylamino)cyclohexan-1-one. One molar equivalent of citric acid was added to the vial, and the contents were stirred at room temperature.

[5] = drying in a vacuum oven at room temperature

Question: Which solubility ([1]; 1,4-dioxane, organic solvent or mixture, 1,4-Dioxane, read-out: Solubility) does the source give for `CN[C@@]1(c2ccc(F)cc2)CCCCC1=O` [1R HCl Form 1, (R)-2-(4-fluorophenyl)-2-(methylamino)cyclohexan-1-one hydrochloride Form 1] here?
Answer: 2.9 to 3.3 mg/mL

Question: What about the solubility ([1]; 2-methf, organic solvent or mixture, 2-MeTHF, read-out: Solubility) of the same compound?
Answer: < 2.6 mg/mL

Question: What about the solubility ([1]; DCM) of the same compound?
Answer: 194 to 388 mg/mL

Question: What about the solubility ([1]; DMF) of the same compound?
Answer: 192 to 384 mg/mL

Question: What about the solubility ([1]; DMSO) of the same compound?
Answer: >395 mg/mL

Question: What about the solubility ([1]; EtOH) of the same compound?
Answer: 215 to 431 mg/mL

Question: What about the solubility ([1]; MeOH) of the same compound?
Answer: >486 mg/mL

Question: What about the solubility ([1]; Water) of the same compound?
Answer: >464 mg/mL

Question: And the solubility ([1]; acetone, organic solvent or mixture, Acetone, read-out: Solubility)?
Answer: 8.8 to 9.7 mg/mL

Question: What about the solubility ([1]; acn, organic solvent or mixture, ACN, read-out: Solubility) of the same compound?
Answer: 32 to 38 mg/mL

Question: And the solubility ([1]; dcm, organic solvent or mixture, DCM, read-out: Solubility)?
Answer: > 300 mg/mL

Question: What about the solubility ([1]; dmf, organic solvent or mixture, DMF, read-out: Solubility) of the same compound?
Answer: > 300 mg/mL

Question: And the solubility ([1]; dmso, organic solvent or mixture, DMSO, read-out: Solubility)?
Answer: > 300 mg/mL

Question: What about the “Solubility (in words)” value ([1]; esters, ketones, ethers, and alkanes) of the same compound?
Answer: Limited or no solubility

Question: And the solubility ([1]; etoac, organic solvent or mixture, EtOAc, read-out: Solubility)?
Answer: < 2.6 mg/mL

Question: What about the solubility ([1]; etoh, organic solvent or mixture, EtOH, read-out: Solubility) of the same compound?
Answer: > 300 mg/mL

Question: And the solubility ([1]; heptane, organic solvent or mixture, Heptane, read-out: Solubility)?
Answer: < 2.7 mg/mL

Question: And the solubility ([1]; ipa, organic solvent or mixture, IPA, read-out: Solubility)?
Answer: 50 to 67 mg/mL

Question: What about the solubility ([1]; ipac, read-out: Solubility) of the same compound?
Answer: < 2.4 mg/mL

Question: And the solubility ([1]; mek, read-out: Solubility)?
Answer: 3.1 to 3.7 mg/mL

Question: What about the solubility ([1]; meoh, organic solvent or mixture, MeOH, read-out: Solubility) of the same compound?
Answer: > 300 mg/mL

Question: What about the solubility ([1]; mibk, read-out: Solubility) of the same compound?
Answer: < 2.7 mg/mL

Question: What about the solubility ([1]; mtbe, organic solvent or mixture, MTBE, read-out: Solubility) of the same compound?
Answer: < 2.5 mg/mL

Question: And the solubility ([1]; npa, read-out: Solubility)?
Answer: 51 to 69 mg/mL

Question: And the solubility ([1]; thf, organic solvent or mixture, THF, read-out: Solubility)?
Answer: < 3 mg/mL

Question: And the solubility ([1]; toluene, organic solvent or mixture, Toluene, read-out: Solubility)?
Answer: < 2.7 mg/mL

Question: What about the solubility ([1]; water, read-out: Solubility) of the same compound?
Answer: > 300 mg/mL

Question: And the “DVS moisture sorption behavior” value ([2]; 25 °C, 0-90-0-90-0% RH)?
Answer: absorbs significant moisture above ~80% RH but readily releases the moisture at lower humidity

Question: And the “Crystal form of post-DVS sample” value ([2]; post-DVS, kept at 0% RH for 3 days)?
Answer: same crystal form as the starting solids

Question: And the “Hydrate/solvate state from TGA” value ([3]; heated from room temperature to 100 °C)?
Answer: not a hydrate or solvate

Question: What about the TGA weight loss ([3]; room temperature to 100 °C) of the same compound?
Answer: 0.34%

Question: And the Sublimation (Sublimation on heating)?
Answer: can be sublimed from a solid phase to gas phase without passing through the liquid phase

Question: And the “Form of material recovered from sublimation” value (Sublimation on heating; XRPD)?
Answer: same XRPD pattern as 1R HCl Form 1

Question: For `CN[C@@]1(c2ccc(F)cc2)CCCCC1=O` [Cit-1, (R)-2-(4-fluorophenyl)-2-(methylamino)cyclohexan-1-one Cit-1], which Crystal form conversion [4, 5] is on record?
Answer: transitioned to a different XRPD pattern

Question: With `CN[C@@]1(c2ccc(F)cc2)CCCCC1=O` [Cit-2, (R)-2-(4-fluorophenyl)-2-(methylamino)cyclohexan-1-one Cit-2] as the compound, how does the TGA weight loss ([3]; room temperature to 100 °C) read?
Answer: about 1.33%

Question: For `CN[C@@]1(c2ccc(F)cc2)CCCCC1=O` [Fum-1, (R)-2-(4-fluorophenyl)-2-(methylamino)cyclohexan-1-one Fum-1], which TGA weight loss ([3]; by 100 °C) is on record?
Answer: about 0.66%

Question: For `CN[C@@]1(c2ccc(F)cc2)CCCCC1=O` [Glyc-1, (R)-2-(4-fluorophenyl)-2-(methylamino)cyclohexan-1-one Glyc-1], which TGA weight loss ([3]; room temperature to 100 °C) is on record?
Answer: about 1.89%

Question: For `CN[C@@]1(c2ccc(F)cc2)CCCCC1=O` [Hip-1, (R)-2-(4-fluorophenyl)-2-(methylamino)cyclohexan-1-one Hip-1], which TGA weight loss ([3]; room temperature to 100 °C) is on record?
Answer: about 0.69%

Question: For `CN[C@@]1(c2ccc(F)cc2)CCCCC1=O` [MSA-1, (R)-2-(4-fluorophenyl)-2-(methylamino)cyclohexan-1-one MSA-1], which TGA weight loss ([3]; by 100 °C) is on record?
Answer: about 0.01%

Question: Which TGA weight loss ([3]; by 100 °C) does the source give for `CN[C@@]1(c2ccc(F)cc2)CCCCC1=O` [Mal-1, (R)-2-(4-fluorophenyl)-2-(methylamino)cyclohexan-1-one Mal-1] here?
Answer: about 0.16%

Question: With `CN[C@@]1(c2ccc(F)cc2)CCCCC1=O` [Mal-2, (R)-2-(4-fluorophenyl)-2-(methylamino)cyclohexan-1-one Mal-2] as the compound, how does the TGA weight loss ([3]; by 100 °C) read?
Answer: about 0.11%

Question: Which TGA weight loss ([3]; room temperature to 100 °C) does the source give for `CN[C@@]1(c2ccc(F)cc2)CCCCC1=O` [Mali-1, (R)-2-(4-fluorophenyl)-2-(methylamino)cyclohexan-1-one-L-Mali-1] here?
Answer: about 0.70%

Question: Which TGA weight loss ([3]; by 100 °C) does the source give for `CN[C@@]1(c2ccc(F)cc2)CCCCC1=O` [Phos-1, (R)-2-(4-fluorophenyl)-2-(methylamino)cyclohexan-1-one Phos-1] here?
Answer: about 0.11%

Question: For `CN[C@@]1(c2ccc(F)cc2)CCCCC1=O` [Phos-2, (R)-2-(4-fluorophenyl)-2-(methylamino)cyclohexan-1-one Phos-2], which TGA weight loss ([3]; by 100 °C) is on record?
Answer: about 0.90%

Question: For `CN[C@@]1(c2ccc(F)cc2)CCCCC1=O` [Sulfate-1, (R)-2-(4-fluorophenyl)-2-(methylamino)cyclohexan-1-one Sulfate-1], which TGA weight loss ([3]; by 100 °C, listed as sulfate salt) is on record?
Answer: about 0.08%

Question: Which Crystal form conversion ([4]; wet cake dried at room temperature) does the source give for `CN[C@@]1(c2ccc(F)cc2)CCCCC1=O` [Sulfate-2, (R)-2-(4-fluorophenyl)-2-(methylamino)cyclohexan-1-one Sulfate-2] here?
Answer: a different XRPD diffractogram was obtained

Question: Which Crystal form conversion ([4]; further dried with heating at 40 °C) does the source give for `CN[C@@]1(c2ccc(F)cc2)CCCCC1=O` [Sulfate-3, (R)-2-(4-fluorophenyl)-2-(methylamino)cyclohexan-1-one Sulfate-3] here?
Answer: a different XRPD diffractogram was obtained

Question: Which Crystal form conversion [4, 5] does the source give for `CN[C@@]1(c2ccc(F)cc2)CCCCC1=O` [Tar-2, (R)-2-(4-fluorophenyl)-2-(methylamino)cyclohexan-1-one Tar-2] here?
Answer: transitioned into Tar-5

Question: Which TGA weight loss ([3]; room temperature to 125 °C) does the source give for `CN[C@@]1(c2ccc(F)cc2)CCCCC1=O` [Tar-3, (R)-2-(4-fluorophenyl)-2-(methylamino)cyclohexan-1-one Tar-3] here?
Answer: about 9.95%

Question: With `CN[C@@]1(c2ccc(F)cc2)CCCCC1=O` [Tar-4, (R)-2-(4-fluorophenyl)-2-(methylamino)cyclohexan-1-one Tar-4] as the compound, how does the Crystal form conversion [4, 5] read?
Answer: converted into Tar-6

Question: With `CN[C@@]1(c2ccc(F)cc2)CCCCC1=O` [Tar-5, (R)-2-(4-fluorophenyl)-2-(methylamino)cyclohexan-1-one Tar-5] as the compound, how does the TGA weight loss ([3]; by 100 °C) read?
Answer: about 0.26%

Question: With `CN[C@@]1(c2ccc(F)cc2)CCCCC1=O` [Tar-6, (R)-2-(4-fluorophenyl)-2-(methylamino)cyclohexan-1-one Tar-6] as the compound, how does the TGA weight loss ([3]; by 100 °C) read?
Answer: about 10.67%
